The test system of this assay is inflammatory bowel disease (IBD), symptom of diarrhoea. The assay is described as follows: clinical study in patients with inflammatory bowel disease (IBD): symptom of diarrhoea on subjective 5-point scale. In kind it is in vivo, adult patients. The note with it: n = 6 IBD patients; for Diarrhoea % improvement relative to the base time / Diarrhoea mean intensity, final: after 4 weeks of daily oral treatment, 250 mg of each active; for Diarrhoea mean intensity, final / Diarrhoea mean intensity, base: scale 0 to 4; for Diarrhoea mean intensity, base: base time before treatment. The procedure: The clinical study described below was performed with the tablets thus produced.
The study was performed on 18 adult patients of both sexes, divided into three homogeneous groups each of 6 patients, who were suffering from inflammatory bowel disease (IBD) and were treated as follows:
Group 1: 250 mg butyric acid
Group 3: 250 mg butyric acid+250 mg inulin
The active ingredients were transported in tablets which were indistinguishable in shape, size, weight and colour.
The treatments were administered orally daily before the main meal for a period of 4 weeks.
Before the start of the treatment (base time) and then upon completion of the 4 weeks of treatment, each patient was assessed for the presence of the symptom of diarrhoea.
This symptom was quantified, according to its intensity, on a subjective 5-point scale graduated from 0 (absence of indisposition) to 4 (indisposition of considerable gravity). The mean intensity at the base time and at the end of the period of treatment and the percentage of improvement relative to the base time were calculated for this symptom.

For inulin, the “Diarrhoea % improvement relative to the base time” value is listed as 27%; the “Diarrhoea mean intensity, final” value was 2.1; the “Diarrhoea mean intensity, base” value was 2.9.
On the same counts, the results for `CCCC(=O)O` [butyric acid] are 44%, 1.5 and 2.7.

Source of the values: US20150010639A1, “PHAR[…] DIETARY COMPOSITIONS BASED ON SHORT-CHAIN FATTY ACIDS AND COMPLEX SUGARS, FOR INTESTINAL DISORDERS” (COSMO TECHNOLOGIES LTD., priority 2004, published 2015).
